Test results as given in ChEMBL document CHEMBL1201862, “PubChem BioAssay data set” (2004).
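48-hour exposure; five concentrations; linearly interpolated endpoints. GI50 = concentration required for 50% inhibition of growth.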 The source made the active and inactive calls. No stated cut-off is given here; in the data, active = GI50 up to about 1.1 µM and inactive = higher.

Legend:
Experiment in all cases: NCI tumour cell line growth inhibition, 48 h
[1] = system: A549
[2] = system: SNB-19
[3] = system: MCF7
[4] = system: SK-OV-3
[5] = system: 786-0
[6] = system: SK-MEL-5
[7] = system: MDA-MB-435
[8] = system: HCT-116
[9] = system: HOP-62
[10] = system: LOX IMVI
[11] = system: SF-268
[12] = system: TK-10
[13] = system: NCI-H460
[14] = system: SK-MEL-28
[15] = system: Malme-3M
[16] = system: A498
[17] = system: RXF 393
[18] = system: MDA-MB-231
[19] = system: OVCAR-5
[20] = system: RPMI-8226
[21] = system: T47D
[22] = system: NCI-H23
[23] = system: HL-60
[24] = system: KM12
[25] = system: U-251
[26] = system: SF-295
[27] = system: SW-620
[28] = system: M14
[29] = system: K562
[30] = system: SR
[31] = system: Hs-578T
[32] = system: EKVX
[33] = system: UACC-257
[34] = system: ACHN
[35] = system: MDA-N
[36] = system: SNB-75
[37] = system: COLO 205
[38] = system: SK-MEL-2
[39] = system: HOP-92
[40] = system: SN12C
[41] = system: OVCAR-4
[42] = system: NCI-H226
[43] = system: UACC-62
[44] = system: CCRF-CEM
[45] = system: MOLT-4
[46] = system: DU-145
[47] = system: SF-539
[48] = system: UO-31
[49] = system: HT-29
[50] = system: OVCAR-3
[51] = system: HCT-15
[52] = system: CAKI-1
[53] = system: PC-3
[54] = system: NCI/ADR-RES
[55] = system: HCC 2998
[56] = system: NCI-H522
[57] = system: OVCAR-8
[58] = system: IGROV-1

With O=C1CSC(c2cccc(Cl)c2)N1c1c(O)c(Cl)cc(Br)c1Cl (stereo unspecified) the GI50 [1] was 53.3 µM (inactive), the GI50 [2] was > 100 µM (inactive) and the GI50 [3] was 15.6 µM (inactive). The GI50 [4] was > 100 µM (inactive), the GI50 [5] was 25.5 µM (inactive) and the GI50 [6] was 27.3 µM (inactive). The GI50 [7] was 17.1 µM (inactive), the GI50 [8] was 15.1 µM (inactive) and the GI50 [9] was > 100 µM (inactive). For the same compound, the GI50 [10] was 16.3 µM (inactive), the GI50 [11] was 57.8 µM (inactive) and the GI50 [12] was 83.4 µM (inactive). The GI50 [13] was > 100 µM (inactive), the GI50 [14] was > 100 µM (inactive) and the GI50 [15] was > 100 µM (inactive). For the same compound, the GI50 [16] was > 100 µM (inactive), the GI50 [17] was 16.7 µM (inactive) and the GI50 [18] was 14 µM (inactive). For the same compound, the GI50 [19] was > 100 µM (inactive), the GI50 [20] was 15.9 µM (inactive) and the GI50 [21] was 17.1 µM (inactive). For the same compound, the GI50 [22] was 27.7 µM (inactive), the GI50 [23] was 25.8 µM (inactive) and the GI50 [24] was 34 µM (inactive). The GI50 [25] was 25.5 µM (inactive), the GI50 [26] was > 100 µM (inactive) and the GI50 [27] was 17.2 µM (inactive). The GI50 [28] was > 100 µM (inactive), the GI50 [29] was 45.2 µM (inactive) and the GI50 [30] was 24.8 µM (inactive). The GI50 [31] was 29.8 µM (inactive), the GI50 [32] was > 100 µM (inactive) and the GI50 [33] was 22.4 µM (inactive). For the same compound, the GI50 [34] was 14.8 µM (inactive), the GI50 [35] was 17.1 µM (inactive) and the GI50 [36] was 29.4 µM (inactive). The GI50 [37] was 23.5 µM (inactive), the GI50 [38] was 14.9 µM (inactive) and the GI50 [39] was 15.1 µM (inactive). The GI50 [40] was 58.5 µM (inactive), the GI50 [41] was 14.9 µM (inactive) and the GI50 [42] was 30.2 µM (inactive). For the same compound, the GI50 [43] was 22.6 µM (inactive), the GI50 [44] was 19.8 µM (inactive) and the GI50 [45] was 23.6 µM (inactive). The GI50 [46] was > 100 µM (inactive), the GI50 [47] was 28.8 µM (inactive) and the GI50 [48] was 15.6 µM (inactive). The GI50 [49] was > 100 µM (inactive), the GI50 [50] was 16.9 µM (inactive) and the GI50 [51] was 15 µM. The GI50 [52] was > 100 µM (inactive), the GI50 [53] was 36.1 µM (inactive) and the GI50 [54] was 71 µM (inactive).

CCOC(=O)/C=C/CC(C)(C)CCOC(C)=O was tested, and the GI50 [1] was > 10 µM (inactive), the GI50 [2] was > 10 µM (inactive) and the GI50 [3] was > 10 µM (inactive). For the same compound, the GI50 [4] was > 10 µM (inactive), the GI50 [5] was > 10 µM (inactive) and the GI50 [6] was > 10 µM (inactive). The GI50 [7] was > 10 µM (inactive), the GI50 [8] was > 10 µM (inactive) and the GI50 [9] was > 10 µM (inactive). For the same compound, the GI50 [10] was > 10 µM (inactive), the GI50 [11] was > 10 µM (inactive) and the GI50 [12] was > 10 µM (inactive). The GI50 [13] was > 10 µM (inactive), the GI50 [55] was > 10 µM (inactive) and the GI50 [14] was > 10 µM (inactive). For the same compound, the GI50 [17] was > 10 µM (inactive), the GI50 [18] was > 10 µM (inactive) and the GI50 [56] was > 10 µM (inactive). The GI50 [19] was > 10 µM (inactive), the GI50 [20] was > 10 µM (inactive) and the GI50 [21] was > 10 µM (inactive). The GI50 [22] was > 10 µM (inactive), the GI50 [23] was > 10 µM (inactive) and the GI50 [57] was > 10 µM (inactive). The GI50 [24] was > 10 µM (inactive), the GI50 [25] was > 10 µM (inactive) and the GI50 [26] was > 10 µM (inactive). The GI50 [27] was > 10 µM (inactive), the GI50 [28] was > 10 µM (inactive) and the GI50 [58] was > 10 µM (inactive). The GI50 [29] was > 10 µM (inactive), the GI50 [30] was > 10 µM (inactive) and the GI50 [31] was > 10 µM (inactive). The GI50 [33] was > 10 µM (inactive), the GI50 [34] was > 10 µM (inactive) and the GI50 [35] was > 10 µM (inactive). For the same compound, the GI50 [36] was > 10 µM (inactive), the GI50 [37] was > 10 µM (inactive) and the GI50 [38] was > 10 µM (inactive). For the same compound, the GI50 [39] was > 10 µM (inactive), the GI50 [40] was > 10 µM (inactive) and the GI50 [41] was > 10 µM (inactive). The GI50 [42] was > 10 µM (inactive), the GI50 [43] was > 10 µM (inactive) and the GI50 [44] was > 10 µM (inactive). The GI50 [45] was > 10 µM (inactive), the GI50 [46] was > 10 µM (inactive) and the GI50 [47] was > 10 µM (inactive). The GI50 [48] was > 10 µM (inactive), the GI50 [49] was > 10 µM (inactive) and the GI50 [50] was > 10 µM (inactive). The GI50 [51] was greater than 10 µM, the GI50 [52] was > 10 µM (inactive) and the GI50 [53] was > 10 µM (inactive). For the same compound, the GI50 [54] was > 10 µM (inactive).

C=C(C)[C@]12CC(C)C34OC(/C=C\C=C\CCCCCCCCC)(O[C@@H]1[C@@H]3[C@@H]1O[C@]1(CO)[C@@H](O)[C@]1(O)C(=O)C(C)=C[C@@H]41)O2 (stereo partly specified) was tested, and the GI50 [1] was < 0.012 µM (active), the GI50 [2] was 16.6 µM (inactive) and the GI50 [3] was 10.6 µM (inactive). The GI50 [4] was 20.3 µM (inactive), the GI50 [5] was 6.35 µM (inactive) and the GI50 [6] was 11.7 µM (inactive). The GI50 [7] was 0.0223 µM (active), the GI50 [8] was 7.48 µM (inactive) and the GI50 [10] was 0.026 µM (active). The GI50 [11] was 12.8 µM (inactive), the GI50 [12] was 0.000288 µM (active) and the GI50 [13] was 0.01 µM (active). The GI50 [55] was 0.01 µM (active), the GI50 [14] was 12.1 µM (inactive) and the GI50 [15] was 0.535 µM (active). For the same compound, the GI50 [17] was 14.8 µM (inactive), the GI50 [18] was 0.01 µM (active) and the GI50 [56] was 14.7 µM (inactive). For the same compound, the GI50 [19] was 17.1 µM (inactive), the GI50 [20] was 11.9 µM (inactive) and the GI50 [21] was 11.9 µM (inactive). The GI50 [22] was 14.4 µM (inactive), the GI50 [23] was 0.0103 µM (active) and the GI50 [57] was 16.3 µM (inactive). The GI50 [24] was 6.97 µM (inactive), the GI50 [25] was 15.5 µM (inactive) and the GI50 [26] was 0.01 µM (active). The GI50 [28] was 13.1 µM (inactive), the GI50 [58] was 14.8 µM (inactive) and the GI50 [29] was 0.0103 µM (active). For the same compound, the GI50 [30] was 2.16 µM (inactive), the GI50 [31] was 0.01 µM (active) and the GI50 [32] was 13.4 µM (inactive). The GI50 [33] was 14.7 µM (inactive), the GI50 [34] was 5.61 µM (inactive) and the GI50 [35] was 0.01 µM (active). For the same compound, the GI50 [36] was 5.07 µM (inactive), the GI50 [37] was 0.0001 µM (active) and the GI50 [40] was 2.42 µM (inactive). For the same compound, the GI50 [41] was 9.93 µM (inactive), the GI50 [42] was 18 µM (inactive) and the GI50 [43] was 10 µM (inactive). The GI50 [44] was 2.52 µM (inactive), the GI50 [45] was 2.14 µM (inactive) and the GI50 [46] was 8.38 µM (inactive). The GI50 [47] was 0.01 µM (active), the GI50 [48] was 11.2 µM (inactive) and the GI50 [49] was 2.21 µM (inactive). The GI50 [50] was 6.41 µM (inactive), the GI50 [51] was 12.4 µM and the GI50 [53] was 2 µM (inactive). For the same compound, the GI50 [54] was 18.5 µM (inactive).
